Reference: ChEMBL document CHEMBL1909046, “DrugMatrix in vitro pharmacology data”

Assays:
[1] = target: T1, 5-hydroxytryptamine receptor 2C (Homo sapiens, UniProt P28335); assay: DRUGMATRIX: Serotonin (5-Hydroxytryptamine) 5-HT2C radioligand binding (ligand: [3H] Mesulergine); format: cell membranes, CHO-K1, Membrane; details: cho-k1; Not Active = under 50% inhibition at 10 µM
T1 sequence (P28335 whole entry): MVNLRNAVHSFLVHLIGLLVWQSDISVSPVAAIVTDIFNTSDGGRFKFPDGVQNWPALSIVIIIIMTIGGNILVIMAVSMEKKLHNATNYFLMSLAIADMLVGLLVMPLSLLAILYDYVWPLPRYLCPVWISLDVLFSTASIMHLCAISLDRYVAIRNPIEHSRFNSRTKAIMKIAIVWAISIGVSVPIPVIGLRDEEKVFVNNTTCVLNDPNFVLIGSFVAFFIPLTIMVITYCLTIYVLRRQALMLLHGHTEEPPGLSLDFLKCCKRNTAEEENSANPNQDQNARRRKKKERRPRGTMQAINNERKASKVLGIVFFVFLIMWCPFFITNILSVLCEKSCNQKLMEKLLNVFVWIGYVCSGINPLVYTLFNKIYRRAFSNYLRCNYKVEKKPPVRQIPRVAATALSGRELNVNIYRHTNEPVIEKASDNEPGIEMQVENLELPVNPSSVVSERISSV

Cytochrome P450 2C9 = Cytochrome P450 2C9 (Homo sapiens, UniProt P11712); details: bti-tn-5b1-4; further: in other assays of this panel Not Active means under 50% inhibition at 10 µM
Cytochrome P450 2A6 = target: T2, Cytochrome P450 2A6 (Homo sapiens, UniProt P11509); details: bti-tn-5b1-4; further: in other assays of this panel Not Active means under 50% inhibition at 10 µM
T2 sequence (P11509 whole entry): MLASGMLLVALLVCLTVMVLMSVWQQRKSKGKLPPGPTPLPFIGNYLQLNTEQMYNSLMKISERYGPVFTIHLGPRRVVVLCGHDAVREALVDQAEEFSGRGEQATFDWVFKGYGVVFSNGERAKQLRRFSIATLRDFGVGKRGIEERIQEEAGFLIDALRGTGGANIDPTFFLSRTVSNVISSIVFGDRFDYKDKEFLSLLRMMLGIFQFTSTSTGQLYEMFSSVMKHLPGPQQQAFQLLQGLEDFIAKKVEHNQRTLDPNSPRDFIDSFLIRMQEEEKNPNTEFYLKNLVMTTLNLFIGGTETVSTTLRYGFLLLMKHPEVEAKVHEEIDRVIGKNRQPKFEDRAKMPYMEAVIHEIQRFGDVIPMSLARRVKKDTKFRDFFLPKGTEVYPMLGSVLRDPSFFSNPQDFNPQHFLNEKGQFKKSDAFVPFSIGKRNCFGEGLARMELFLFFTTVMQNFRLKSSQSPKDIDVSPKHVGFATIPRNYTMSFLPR

Cytochrome P450 2D6 = Cytochrome P450 2D6 (Homo sapiens, UniProt P10635); details: bti-tn-5b1-4; further: in other assays of this panel Not Active means under 50% inhibition at 10 µM
[2] = target: 5-hydroxytryptamine receptor 2B (Homo sapiens, UniProt P41595); format: cell membranes, CHO-K1, Membrane; details: cho-k1; further: in other assays of this panel Not Active means under 50% inhibition at 10 µM
[3] = target: Sodium-dependent noradrenaline transporter (Homo sapiens, UniProt P23975); assay: DRUGMATRIX: Norepinephrine Transporter radioligand binding (ligand: [125I] RTI-55); format: cell membranes, MDCK, Membrane; details: mdck; Not Active = under 50% inhibition at 10 µM
Glucocorticoid receptor = target: T3, Glucocorticoid receptor (Homo sapiens, UniProt P04150); details: hela s3; further: in other assays of this panel Not Active means under 50% inhibition at 10 µM
T3 sequence (P04150 whole entry): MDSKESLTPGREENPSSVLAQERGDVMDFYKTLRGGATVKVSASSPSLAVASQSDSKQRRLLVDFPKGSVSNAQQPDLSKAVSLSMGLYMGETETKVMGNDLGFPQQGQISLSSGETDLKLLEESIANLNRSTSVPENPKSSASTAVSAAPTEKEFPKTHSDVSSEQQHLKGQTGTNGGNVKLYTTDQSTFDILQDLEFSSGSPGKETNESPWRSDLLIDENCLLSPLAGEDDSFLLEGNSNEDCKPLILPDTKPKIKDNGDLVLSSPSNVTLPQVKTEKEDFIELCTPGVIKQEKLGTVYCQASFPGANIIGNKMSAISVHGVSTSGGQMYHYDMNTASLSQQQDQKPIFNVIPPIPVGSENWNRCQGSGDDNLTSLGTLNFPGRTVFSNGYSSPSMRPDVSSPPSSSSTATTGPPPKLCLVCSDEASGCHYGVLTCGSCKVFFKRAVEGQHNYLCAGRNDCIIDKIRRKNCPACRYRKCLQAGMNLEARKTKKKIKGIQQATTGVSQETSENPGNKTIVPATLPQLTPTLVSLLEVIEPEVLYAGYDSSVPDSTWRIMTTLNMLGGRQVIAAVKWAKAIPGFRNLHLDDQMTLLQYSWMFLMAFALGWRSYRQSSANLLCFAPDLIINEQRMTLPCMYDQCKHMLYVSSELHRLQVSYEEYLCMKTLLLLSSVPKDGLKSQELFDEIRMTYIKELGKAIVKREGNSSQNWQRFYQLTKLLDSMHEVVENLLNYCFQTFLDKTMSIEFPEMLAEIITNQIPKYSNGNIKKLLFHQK

Cytochrome P450 2D6, sequence (P10635 whole entry): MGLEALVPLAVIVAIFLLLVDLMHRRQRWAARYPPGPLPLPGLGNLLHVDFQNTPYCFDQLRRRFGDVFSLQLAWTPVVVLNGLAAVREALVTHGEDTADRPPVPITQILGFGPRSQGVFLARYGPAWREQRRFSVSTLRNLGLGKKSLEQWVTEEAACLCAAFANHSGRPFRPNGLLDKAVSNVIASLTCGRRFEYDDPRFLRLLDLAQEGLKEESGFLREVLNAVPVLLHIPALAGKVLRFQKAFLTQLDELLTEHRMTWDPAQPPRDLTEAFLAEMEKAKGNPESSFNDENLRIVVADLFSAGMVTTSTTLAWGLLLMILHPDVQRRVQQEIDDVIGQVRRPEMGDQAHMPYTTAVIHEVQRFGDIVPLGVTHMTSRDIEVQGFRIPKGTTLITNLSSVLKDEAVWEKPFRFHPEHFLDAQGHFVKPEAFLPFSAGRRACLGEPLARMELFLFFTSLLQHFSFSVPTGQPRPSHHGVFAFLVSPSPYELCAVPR
Cytochrome P450 2C9, sequence (P11712 whole entry): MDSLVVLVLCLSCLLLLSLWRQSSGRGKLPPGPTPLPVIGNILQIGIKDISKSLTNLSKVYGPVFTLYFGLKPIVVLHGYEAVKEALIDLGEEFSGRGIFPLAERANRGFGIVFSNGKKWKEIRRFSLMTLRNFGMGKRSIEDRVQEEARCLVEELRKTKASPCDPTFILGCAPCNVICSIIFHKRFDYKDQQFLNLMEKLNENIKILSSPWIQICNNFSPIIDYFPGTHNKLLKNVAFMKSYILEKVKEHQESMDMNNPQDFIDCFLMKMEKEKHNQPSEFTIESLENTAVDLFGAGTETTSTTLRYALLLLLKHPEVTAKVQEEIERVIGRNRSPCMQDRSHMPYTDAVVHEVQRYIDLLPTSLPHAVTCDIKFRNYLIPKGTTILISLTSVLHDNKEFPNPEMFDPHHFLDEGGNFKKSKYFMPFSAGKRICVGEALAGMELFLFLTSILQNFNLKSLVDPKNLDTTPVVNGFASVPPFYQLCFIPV
Sodium-dependent noradrenaline transporter, sequence (P23975 whole entry): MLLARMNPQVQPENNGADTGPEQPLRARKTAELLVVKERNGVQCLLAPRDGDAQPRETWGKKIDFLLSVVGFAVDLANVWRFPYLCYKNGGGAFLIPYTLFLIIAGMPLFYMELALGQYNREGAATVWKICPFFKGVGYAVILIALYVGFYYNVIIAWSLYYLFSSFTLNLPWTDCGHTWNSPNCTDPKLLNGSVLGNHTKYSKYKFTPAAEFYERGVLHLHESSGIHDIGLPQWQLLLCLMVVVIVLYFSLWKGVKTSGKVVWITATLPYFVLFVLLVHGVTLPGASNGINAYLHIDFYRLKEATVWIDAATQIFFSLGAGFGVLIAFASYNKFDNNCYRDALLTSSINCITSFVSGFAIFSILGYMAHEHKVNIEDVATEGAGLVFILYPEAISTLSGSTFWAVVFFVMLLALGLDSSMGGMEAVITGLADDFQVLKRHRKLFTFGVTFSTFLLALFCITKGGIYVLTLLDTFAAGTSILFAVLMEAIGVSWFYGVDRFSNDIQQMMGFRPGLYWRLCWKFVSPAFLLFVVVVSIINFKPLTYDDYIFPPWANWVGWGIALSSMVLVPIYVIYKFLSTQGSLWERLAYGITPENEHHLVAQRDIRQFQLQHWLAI
5-hydroxytryptamine receptor 2B, sequence (P41595 whole entry): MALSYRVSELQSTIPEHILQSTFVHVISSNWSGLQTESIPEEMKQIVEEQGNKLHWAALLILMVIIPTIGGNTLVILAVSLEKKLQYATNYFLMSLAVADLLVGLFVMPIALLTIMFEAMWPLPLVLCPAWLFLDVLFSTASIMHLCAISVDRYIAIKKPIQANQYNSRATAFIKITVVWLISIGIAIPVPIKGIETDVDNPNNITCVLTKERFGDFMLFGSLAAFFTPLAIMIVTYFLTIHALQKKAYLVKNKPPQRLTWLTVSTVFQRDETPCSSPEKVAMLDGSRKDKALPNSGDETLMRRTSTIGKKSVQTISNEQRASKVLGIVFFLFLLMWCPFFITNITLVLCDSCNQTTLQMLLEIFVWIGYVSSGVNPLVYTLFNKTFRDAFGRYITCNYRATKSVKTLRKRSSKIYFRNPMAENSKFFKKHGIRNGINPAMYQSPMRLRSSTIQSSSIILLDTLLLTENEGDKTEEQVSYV

O=[As][O-].[Na+] [SODIUM ARSENITE]
Not Active: IC50 [1] | IC50 (Cytochrome P450 2C9) | Ki (Cytochrome P450 2C9) | IC50 (Cytochrome P450 2A6) | Ki (Cytochrome P450 2A6) | IC50 (Cytochrome P450 2D6) | Ki (Cytochrome P450 2D6) | IC50 [2] | IC50 [3] | IC50 (Glucocorticoid receptor)

Cc1cccc(C)c1NC(=O)C(C)N (centres undefined) [TOCAINIDE]
Not Active: IC50 [1] | IC50 (Cytochrome P450 2C9) | Ki (Cytochrome P450 2C9) | IC50 (Cytochrome P450 2A6) | Ki (Cytochrome P450 2A6) | IC50 (Cytochrome P450 2D6) | Ki (Cytochrome P450 2D6) | IC50 [2] | IC50 [3] | IC50 (Glucocorticoid receptor)

COC(=O)Nc1nc2ccc(C(=O)c3ccccc3)cc2[nH]1 [MEBENDAZOLE]
Not Active: IC50 [1] | IC50 (Cytochrome P450 2C9) | Ki (Cytochrome P450 2C9) | IC50 (Cytochrome P450 2A6) | Ki (Cytochrome P450 2A6) | IC50 (Cytochrome P450 2D6) | Ki (Cytochrome P450 2D6) | IC50 [2] | IC50 [3] | IC50 (Glucocorticoid receptor)

O=C(O)c1cc(/N=N/c2ccc(S(=O)(=O)Nc3ccccn3)cc2)ccc1O [SULFASALAZINE]
Not Active: IC50 [1] | IC50 (Cytochrome P450 2C9) | Ki (Cytochrome P450 2C9) | IC50 (Cytochrome P450 2A6) | Ki (Cytochrome P450 2A6) | IC50 (Cytochrome P450 2D6) | Ki (Cytochrome P450 2D6) | IC50 [2] | IC50 [3] | IC50 (Glucocorticoid receptor)

CC1(C)[C@H](C(=O)O)N2C(=O)C[C@H]2S1(=O)=O [SULBACTAM]
Not Active: IC50 [1] | IC50 (Cytochrome P450 2C9) | Ki (Cytochrome P450 2C9) | IC50 (Cytochrome P450 2A6) | Ki (Cytochrome P450 2A6) | IC50 (Cytochrome P450 2D6) | Ki (Cytochrome P450 2D6) | IC50 [2] | IC50 [3] | IC50 (Glucocorticoid receptor)

LEAD(IV) ACETATE
Not Active: IC50 [1] | Ki [1] | IC50 (Cytochrome P450 2C9) | Ki (Cytochrome P450 2C9) | IC50 (Cytochrome P450 2A6) | Ki (Cytochrome P450 2A6) | IC50 (Cytochrome P450 2D6) | Ki (Cytochrome P450 2D6) | IC50 [2] | Ki [2] | IC50 [3] | Ki [3] | IC50 (Glucocorticoid receptor) | Ki (Glucocorticoid receptor)
